From patent US5783557A, “THF-γ2 analogs and pharmaceutical compositions comprising them” (Yeda Research and Development Company Ltd at Weizmann …, priority 1993, dated 1998)
No end group written: not given here. *: point of attachment. iodo = iodine substituent on Tyr (iodo-Tyr), I*

Key:
[1] = tested on: murine cytomegalovirus (MCMV); conditions: MCMV-infected mice; cited from earlier work
[2] = tested on: patients with reduced circulating T cells; conditions: 4 ng/kg/day i.m., 18 injections in 3 weeks; cited from earlier work
[3] = tested on: viral infections of the herpes group; conditions: four patients, same protocol as the pilot study; cited from earlier work
mouse spleen cells = assay: ConA-induced IL-2 production; format: cell-based; design: key: +++: strong enhancement, as THF-γ2; ++ and +: medium and weak enhancement, lower than THF-γ2; ++ and +: medium and weak enhancement, lower than THF-γ2; --no activity; conditions: graded against THF-γ2; Example 1, section 1.1
Method: 1.1. ConA-Induced IL-2 Production
In this bioassay, the effect of THF-γ2 and its analogs in enhancing the secretion of ConA-induced IL-2 from murine spleen cells is determined.
1.1.1. Preparation of cells and preincubation with THF-γ2. Pooled spleen cells (10^7 cell/ml) from five female C3B6F1 (C3HeB/FeJ×C57BL/6J) mice (obtained from Jackson Labs, U.S.A.) aged 6-8 weeks are seeded in 24-well plates (Costar, Cambridge, Mass, U.S.A.). The cells are prepared in medium RPMI-1640 supplemented with penicillin (100 u/ml), streptomycin (100 μg/ml), 2 mM glutamine, 50 μM 2-mercaptoethanol (2-ME) and 20 mM HEPES. THF-γ2 in various concentrations in phosphate buffered saline (PBS), is added in 20 μl aliquots, while control cultures receive 20 μl PBS. The cell cultures are incubated for 20 h in a humidified incubator of 5% CO2 /95% air and 37° C.
1.1.2. Induction of IL-2. ConA (Concanavalin A, ConA, 3×crystalline, Bio-Makor, Ness-Ziona, Israel) is added to the wells in 1 ml fresh medium (as in 1.1.1 above) at suboptimal concentration (1-2.5 μ/ml). […]
1.1.3. […] After incubation of 48 h at 37° C./5% CO2, the proliferation is assessed by the MTT colorimetric assay (T. Mosmann, J. Immunol. Methods 65: 55-63, 1983). Results are expressed in units/ml calculated using a standard murine IL-2 preparation (according to S. Gillis et al., J. Immunol. 120: 2027, 1978).

[4] = tested on: GM-CFC from mouse bone marrow; assay: Effect on GM-CFC from mouse bone marrow; format: cell-based; design: key: +++: strong enhancement, as THF-γ2; ++ and +: medium and weak enhancement, lower than THF-γ2; ++ and +: medium and weak enhancement, lower than THF-γ2; --no activity; conditions: graded against THF-γ2; Example 1, section 1.2
Method: 1.2. Effect of THF-γ2 on GM-CFC From Mouse Bone Marrow. In this second bioassay, the effect of THF-γ2 and its analogs in the enhancement of the number of colonies of GM-CFC in the presence of growth factors is determined. 1.2.1. […] Tibia and femur were removed from BALB/c female mice (6-8 weeks old). The tip of the bone was cut and DMEM with 2.5% FCS was flushed into the bone using a 1 ml syringe with a 26 G needle. This procedure was repeated twice, the cells were then washed in medium and counted in the presence of trypan blue. 1.2.2 Preincubation with THF-γ2. Bone marrow cells suspension was prepared in DMEM with 2.5% FCS at a concentration of 15×10^6 /3.0 ml. THFγ2 diluted in DMEM was added in 20 μl aliquots, control cells received 20 μl DMEM. Cell suspensions in conical tissue culture tubes were incubated at 37° C./8% CO2 for 1 h. Cells were then collected, washed and counted in trypan blue. Cell suspensions were adjusted at 1×10^6 /ml. 1.2.3. GM-CFC assay. Bone marrow cells (4×10^5) are suspended in methylcellulose (0.8%), FCS (20%) and conditioned medium of 14FIL3 CB6 cell line (5%) in a total volume of 4 ml of DMEM. After vigorous mixing, the suspension is seeded into 30 mm diameter plates with the aid of a 3.0 ml syringe (21G needle, in triplicate). […] Colonies are counted using an inverted microscope at low magnification.

Row | Substance | interferon synthesis and NK cytotoxicity [1] | side effects [2] | side effects [3] | IL-2: Enhancement of ConA induced IL2 production in mouse spleen cells (mouse spleen cells) | GM-CFC: Enhancement of the number of GMCFC from mouse bone marrow [4]
1 | LEDGPKFL [THF-γ2, Leu-Glu-Asp-Gly-Pro-Lys-Phe-Leu] | did not affect | No side effects attributable to synthetic THF-γ2 were observed | no deleterious side effects were documented |  | 
2 | Iodo-Tyr-Leu-Glu-Asp-Gly-Pro-Lys-Phe-Leu (Y(iodo)LEDGPKFL) [iodo-Y^-1 -THF-γ2] |  |  |  | ++ | -
